Like-named read-outs stand apart in the source and are kept apart here. Blank lines part the entries; values can stand above or below the molecule they belong to. Residues, ends and D or L forms follow the SMILES beside them.
How the values were obtained:
Format in all cases: cell-based
[1] = molecular target: T1, human ASCT1 neutral amino acid transporter (Homo sapiens, UniProt P43007); assay: amino acid-induced inward current in voltage-clamped ASCT1-injected Xenopus oocytes
T1 construct: expressed in transfected cells; host or cells: Xenopus laevis oocytes injected with in vitro transcribed RNA (pOTV vector)
T1 sequence (P43007 1-532): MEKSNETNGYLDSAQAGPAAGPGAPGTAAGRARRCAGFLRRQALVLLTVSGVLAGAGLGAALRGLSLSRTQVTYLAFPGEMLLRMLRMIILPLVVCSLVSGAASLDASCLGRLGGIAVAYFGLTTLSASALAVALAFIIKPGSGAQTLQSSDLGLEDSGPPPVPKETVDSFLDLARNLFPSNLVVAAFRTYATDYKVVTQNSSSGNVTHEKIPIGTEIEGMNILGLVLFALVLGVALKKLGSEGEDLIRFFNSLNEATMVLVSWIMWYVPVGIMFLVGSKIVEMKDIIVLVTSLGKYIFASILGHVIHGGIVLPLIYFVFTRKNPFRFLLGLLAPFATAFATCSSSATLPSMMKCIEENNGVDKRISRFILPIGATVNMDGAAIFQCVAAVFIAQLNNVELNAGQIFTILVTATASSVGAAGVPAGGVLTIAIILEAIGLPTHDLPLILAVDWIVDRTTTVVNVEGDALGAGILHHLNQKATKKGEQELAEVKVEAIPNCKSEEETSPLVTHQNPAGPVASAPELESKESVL
Source text: (§1) Following the PCR, the product of the amplification reaction was purified using standard techniques (Saiki et al., 1988, Science 239: 487-491). The DNA then digested with the restriction enzymes KpnI and XbaI and then cloned into the polylinker of an oocyte transcription vector (POTV; see Wang el al., 1991, Nature 352: 729-731) that had been digested with KpnI and XbaI. Synthetic RNA was then transcribed in vitro from this clone using the method of Kavanaugh et al. (1992, J. Biol. Chem. 267: 22007-22009) employing bacteriophage T7 RNA polymerase (New England Biolabs, Beverly, Mass.). 20-50 nL of ASCT1 RNA (at a concentration of about 400 μg/mL) was injected into defolliculated stage V-VI Xenopus oocytes excised from female Xenopus laevis anesthetized by immersion in 3-aminobenzoic acid for 60 min. Excised oocytes were treated with collagenase II (Sigma Chemical Co., St. Louis, Mo.) in calcium-free Barth's saline solution [comprising 88 mM NaCl, 1 mM KCl, 2.4 mM NaHCO3, 0.82 mM MgSO4, 7.5 mM Tris-HCl (pH 7.6), 50 U/mL Nystatin (Sigma) and 0.1 mg/mL gentamycin (Sigma)] for 60 min., and then incubated overnight at 15° C. in 50% Leibowitz's L-15 media (Grand Island Biological Co. (GIBCO), Long Island, N.Y.). After overnight incubation the oocytes were mechanically defolliculated and then were injected with ASCT-1 RNA and incubated at 19° C. for 48 h (see Kim el al., 1991, Nature 352: 725-728 for further details of Xenopus oocyte preparation and microinjection).
(§2) Amino acid transport in such oocytes was assayed using [^3H] alanine, [^3H] serine or [^35S] cysteine (obtained from New England Nuclear, Boston, Mass.). Briefly, microinjected oocytes were […] at −60 mV using a Dagan TEV-200 clamp amplifier with an Axon Instruments (Foster City, Calif.) TL-1 A/D interface controlled by pCLAMP software (Axon Instruments) (see Kavanaugh et al., 1992, J. Biol. Chem. 267: 22007-22009 for a detailed review of this methodology) and continuously superfused with ND-96 buffer (consisting of 96 mM NaCl/2 mM KCl/1.8 mM CaCl2/1 mM MgCl2/5 mM HEPES, pH 7.5). For transport measurements, this solution was changed to a solution containing varying concentrations of the radiolabeled amino acids in ND-96 buffer.
More detailed analyses of ithe kinetics of amino acid influx were performed by least squares linear regression analysis of induced inward current ([I]) plotted as a function of substrate amino acid concentration ([S]), using the equation shown in the legend of Table II.

human EAAT2 = molecular target: T2, human EAAT2 (Homo sapiens, UniProt P43004); assay: inhibition of [3H]-L-glutamate uptake in COS-7 cells expressing EAAT2; conditions: for inhibition of glutamate uptake (in words), EAAT2: COS cell culture
T2 construct: expressed in transfected cells; host or cells: COS-7 cells, pCMV5 construct, DEAE-dextran transient transfection
T2 sequence (P43004 whole entry): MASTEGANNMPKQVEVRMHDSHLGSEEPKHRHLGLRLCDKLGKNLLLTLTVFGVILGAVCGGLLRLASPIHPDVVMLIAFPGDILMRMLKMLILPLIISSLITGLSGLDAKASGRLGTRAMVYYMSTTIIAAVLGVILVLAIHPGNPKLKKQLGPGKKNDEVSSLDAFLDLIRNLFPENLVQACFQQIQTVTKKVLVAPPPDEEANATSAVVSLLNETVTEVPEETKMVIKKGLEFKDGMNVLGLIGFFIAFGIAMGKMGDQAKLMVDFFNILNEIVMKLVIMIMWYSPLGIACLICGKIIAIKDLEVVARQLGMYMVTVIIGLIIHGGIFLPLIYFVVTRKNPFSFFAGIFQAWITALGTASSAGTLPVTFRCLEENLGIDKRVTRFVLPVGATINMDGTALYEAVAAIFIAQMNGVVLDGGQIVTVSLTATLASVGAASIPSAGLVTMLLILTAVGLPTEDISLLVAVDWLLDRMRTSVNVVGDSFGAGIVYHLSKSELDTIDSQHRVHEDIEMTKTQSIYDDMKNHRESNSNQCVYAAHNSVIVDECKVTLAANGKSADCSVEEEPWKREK
Source text: (§3) DNA fragments comprising the coding sequences of the novel glutamate transporter genes of the invention were excised from the POTV constructs described in Example 3 and subcloned into the mammalian expression plasmid pCMV5 (Anderson et al., 1989, J. Biol. Chem. 264: 8222-8229). These mammalian expression constructs were used for transient expression assays of glutamate transporter protein function after transfection of each of these constructs into COS-7 cells (Gluzman, 1981, Cell 23: 175-182).
(§4) Each of the pCMV5 constructs corresponding to EAAT1, EAAT2 and EAAT3 were introduced into COS-7 cells by DEAE-dextran facilitated transfection (see Sambrook et al., ibid.). Two day following transfection, the transfected cells were washed three times in phosphate-buffered saline (PBS) and then incubated with a mixture of radiolabeled amino acid ([^3H]-L-glutamate or [^3H]-D-aspartate; Dupont-NEN) and non-radiolabeled amino acid for 10 min. After incubation, the cells were washed three times with ice-cold PBS, solubilized with a solution of 0.1% sodium dodecyl sulfate (SDS) and the amount of radioactivity associated with the cells determined using standard liquid scintillation counting methods.
(§5) COS-7 cell cultures transformed with pCMVS-human glutamate transporter constructs as described in Example 4 were used to characterize the pharmacological properties of each of these transporter proteins relative to a variety of known glutamate transporter inhibitors. These assays were performed essentially as described in Example 4, with the exception that varying amounts of each of a number of known inhibitor compounds were included in the incubations.
(§6) In these experiments, uptake of 1 μM of […] was determined in the presence of the indicated amounts of each of the inhibitors.

human EAAT1 = molecular target: T3, human EAAT1 (Homo sapiens, UniProt P43003); assay: inhibition of [3H]-L-glutamate uptake in COS-7 cells expressing EAAT1; conditions: for inhibition of glutamate uptake (in words), EAAT1: COS cell culture
T3 construct: expressed in transfected cells; host or cells: COS-7 cells, pCMV5 construct, DEAE-dextran transient transfection
T3 sequence (P43003 whole entry): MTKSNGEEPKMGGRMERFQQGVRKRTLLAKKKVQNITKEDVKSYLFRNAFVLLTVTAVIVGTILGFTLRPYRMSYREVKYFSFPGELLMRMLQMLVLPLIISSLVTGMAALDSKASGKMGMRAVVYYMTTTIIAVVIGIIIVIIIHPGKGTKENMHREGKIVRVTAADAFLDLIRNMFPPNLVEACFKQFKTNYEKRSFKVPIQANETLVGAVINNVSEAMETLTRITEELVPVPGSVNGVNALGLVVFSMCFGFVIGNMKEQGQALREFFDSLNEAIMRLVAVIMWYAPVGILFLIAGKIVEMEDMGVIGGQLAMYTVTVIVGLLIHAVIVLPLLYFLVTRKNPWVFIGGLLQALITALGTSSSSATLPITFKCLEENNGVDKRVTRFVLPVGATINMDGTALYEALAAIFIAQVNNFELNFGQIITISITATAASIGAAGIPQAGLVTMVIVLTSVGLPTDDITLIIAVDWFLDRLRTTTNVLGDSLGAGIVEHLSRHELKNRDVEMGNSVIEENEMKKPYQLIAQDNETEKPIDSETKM
Source text: as §3, §4, §5, §6

human EAAT3 = molecular target: T4, human EAAT3 (Homo sapiens, UniProt P43005); assay: inhibition of [3H]-L-glutamate uptake in COS-7 cells expressing EAAT3; conditions: for inhibition of glutamate uptake (in words), EAAT3: COS cell culture
T4 construct: isolation of Clone GT11B containing a full-length open reading frame encoding EAAT3; expressed in transfected cells; host or cells: COS-7 cells, pCMV5 construct, DEAE-dextran transient transfection
T4 sequence (P43005 1-524): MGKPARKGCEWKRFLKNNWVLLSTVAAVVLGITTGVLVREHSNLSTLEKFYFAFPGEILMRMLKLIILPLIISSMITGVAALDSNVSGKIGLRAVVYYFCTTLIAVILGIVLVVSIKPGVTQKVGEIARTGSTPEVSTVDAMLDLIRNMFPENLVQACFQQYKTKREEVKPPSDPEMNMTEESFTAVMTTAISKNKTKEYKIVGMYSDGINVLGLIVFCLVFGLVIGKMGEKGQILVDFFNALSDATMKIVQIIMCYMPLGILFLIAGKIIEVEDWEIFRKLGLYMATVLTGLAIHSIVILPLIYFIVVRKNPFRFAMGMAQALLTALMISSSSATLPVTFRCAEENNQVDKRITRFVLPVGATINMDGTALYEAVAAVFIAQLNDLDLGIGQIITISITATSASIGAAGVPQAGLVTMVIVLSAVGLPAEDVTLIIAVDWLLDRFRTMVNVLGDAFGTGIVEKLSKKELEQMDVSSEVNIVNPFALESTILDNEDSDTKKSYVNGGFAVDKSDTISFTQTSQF
Source text: as §3, §4, §5, §6

[2] = molecular target: T1, human ASCT1 neutral amino acid transporter; assay: radiolabeled amino acid uptake in ASCT1 RNA-injected Xenopus oocytes; conditions: competitor 10 mM; [3H] alanine 100 μM
Source text: as §1, §2

[3] = uptake of 1 μM [3H]-L-glutamate, [S] << Km, Ki does not differ significantly from measured IC50, read-out: Ki, glutamate uptake inhibition constant, EAAT2
[4] = read-out: Ki, glutamate uptake inhibition constant, EAAT2
[5] = read-out: Ki, glutamate uptake inhibition constant, EAAT1
[6] = read-out: Ki, glutamate uptake inhibition constant, EAAT3
[7] = much higher concentrations (about 1 mM)

SMILES: CC(C)[C@H]1CN[C@H](C(=O)O)[C@H]1CC(=O)O [DHK, dihydrokainate]
Ki (human EAAT2): 23 ± 6 µM
Ki (human EAAT1): > 1 mM
Ki (human EAAT3): > 1 mM

SMILES: C=C(C)[C@H]1CN[C@H](C(=O)O)[C@H]1CC(=O)O [KAI, kainate]
Ki (human EAAT2; [3]): 59 ± 18 µM
Ki (human EAAT1; uptake of 1 μM [3H]-L-glutamate, bound given in mM, read-out: Ki, glutamate uptake inhibition constant, EAAT1): > 1 mM
Ki (human EAAT3; uptake of 1 μM [3H]-L-glutamate, bound given in mM, read-out: Ki, glutamate uptake inhibition constant, EAAT3): > 1 mM

SMILES: N[C@@H](CS(=O)(=O)O)C(=O)O [L-cysteate]
Ki (human EAAT2; [3]): 10 ± 2 µM
Ki (human EAAT1; uptake of 1 μM [3H]-L-glutamate, [S] << Km, Ki does not differ significantly from measured IC50, read-out: Ki, glutamate uptake inhibition constant, EAAT1): 0.01 ± 0.003 mM
Ki (human EAAT3; uptake of 1 μM [3H]-L-glutamate, [S] << Km, Ki does not differ significantly from measured IC50, read-out: Ki, glutamate uptake inhibition constant, EAAT3): 0.019 ± 0.009 mM

SMILES: NC(=O)CC[C@H](N)C(=O)O [L-glutamine]
effect on membrane current of ASCT1-injected oocytes [1, 7]: had no effect

SMILES: NCCCC[C@H](N)C(=O)O [L-lysine]
effect on membrane current of ASCT1-injected oocytes [1, 7]: had no effect

SMILES: CNC(C)(C)C(=O)O [MAIB, 2-methylaminoisobutyric acid]
effect on the rate of uptake of [3H] alanine (competition) [2]: had no effect
effect on membrane current of ASCT1-injected oocytes ([1]; 1 mM): had no effect

SMILES: CC(=O)N[C@@H](CC(=O)O)C(=O)N[C@@H](CCC(=O)O)C(=O)O [N-acetyl aspartylglutamate] (Ac-Asp-Glu-OH)
inhibition of glutamate uptake (in words), EAAT2 (human EAAT2): ineffective
inhibition of glutamate uptake (in words), EAAT1 (human EAAT1): ineffective
inhibition of glutamate uptake (in words), EAAT3 (human EAAT3): ineffective

SMILES: CN[C@H](CC(=O)O)C(=O)O [N-methyl-D-aspartate]
inhibition of glutamate uptake (in words), EAAT2 (human EAAT2): ineffective
inhibition of glutamate uptake (in words), EAAT1 (human EAAT1): ineffective
inhibition of glutamate uptake (in words), EAAT3 (human EAAT3): ineffective

SMILES: CN[C@@H](C)C(=O)O [N-methylalanine]
effect on membrane current of ASCT1-injected oocytes [1, 7]: had no effect

Other lines, results leading:

response relative to the response produced by L-alanine ([1]; stereospecificity): 12±3%
SMILES: C[C@@H](N)C(=O)O [D-alanine]

Ki (human EAAT2; [4]): 184 ± 27 µM
Ki (human EAAT1; [5]): 0.369 ± 0.07 mM
Ki (human EAAT3; [6]): 0.133 ± 0.034 mM
SMILES: N[C@@H](CC(=O)NO)C(=O)O [L-aspartate-β-hydroxymate]

Ki (human EAAT2; [4]): 6 ± 1 µM
Ki (human EAAT1; [5]): 0.014 ± 0.007 mM
Ki (human EAAT3; [6]): 0.017 ± 0.002 mM
SMILES: N[C@@H](CS(=O)O)C(=O)O [L-cysteine sulfinic acid]

inhibition of glutamate uptake (in words), EAAT2 (human EAAT2): ineffective
inhibition of glutamate uptake (in words), EAAT1 (human EAAT1): ineffective
inhibition of glutamate uptake (in words), EAAT3 (human EAAT3): ineffective
SMILES: O=C1CC[C@@H](C(=O)O)N1 [L-pyroglutamicacid]

Ki (human EAAT2; [4]): 8 ± 2 µM
Ki (human EAAT1; [5]): 0.079 ± 0.007 mM
Ki (human EAAT3; [6]): 0.061 ± 0.014 mM
SMILES: O=C(O)[C@H]1CN[C@H](C(=O)O)C1 [PDC, L-trans-pyrrolidine-2,4-dicarboxylate]
